The values below come from ChEMBL document CHEMBL5055655, “Design, synthesis and bioactivity evaluation of fisetin derivatives as potential anti-inflammatory agents against LPS-induced acute lung injury” (Bioorg Med Chem, 2021).

Series [1] deals with J774.A1. Description: Antiinflammatory activity in mouse J774.A1 cells assessed as inhibition of LPS-induced IL6 secretion at 10 uM incubated for 2 followed by LPS stimulation and measured after 22 hrs by ELISA relative to control. The following applies: for Activity: time 24.0 hrs. It counts as functional.
The test system of series [2] is J774.A1. Description: Cytotoxicity against mouse J774A.1 cells assessed as reduction in cell viability at 10 uM after 24 hrs by MTT assay. It counts as cell-based. Conditions: j774.a1, 24 h. On the technique in general: Tetrazolium dyes change colour on reduction, which living cells bring about.
The test system of series [3] is J774.A1. Description: Antiinflammatory activity in mouse J774.A1 cells assessed as inhibition of LPS-induced TNF-alpha secretion at 10 uM incubated for 2 followed by LPS stimulation and measured after 22 hrs by ELISA relative to control. It counts as functional. Conditions: for Activity: time 24.0 hrs.
The subject of series [4] is Mus musculus. Description: Anti-inflammatory activity against C57BL/6 mouse model of LPS-induced acute lung injury assessed as reduction in TNF-alpha secretion in broncho alveolar lavage fluid at 20 mg/kg, IG treated 0.5 hrs before LPS stimulation by ELISA. It counts as functional, organism-based. In general terms: In an ELISA, binding on a coated surface is turned into a signal by an enzyme label.

Series [5] relates to Mus musculus. Description: Antiinflammatory activity against C57BL/6 mouse model of LPS-induced acute lung injury assessed as reduction in alveolar septa thickening at 20 mg/kg, IG treated 0.5 hrs before LPS challenge by H and E staining based histopathological analysis. It counts as functional, organism-based.
The test system of series [6] is Mus musculus. Description: Antiinflammatory activity against C57BL/6 mouse model of LPS-induced acute lung injury assessed as reduction in lung tissue destruction at 20 mg/kg, IG treated 0.5 hrs before LPS challenge by H and E staining based histopathological analysis. The series is classed as functional, organism-based.
The test system of series [7] is Mus musculus. Description: Antiinflammatory activity against C57BL/6 mouse model of LPS-induced acute lung injury assessed as reduction in interstitial edema in lung tissue at 20 mg/kg, IG treated 0.5 hrs before LPS challenge by H and E staining based histopathological analysis. The series is classed as functional, organism-based.
Series [8] concerns Mus musculus. Description: Anti-inflammatory activity against C57BL/6 mouse model of LPS-induced acute lung injury assessed as reduction in cell count in broncho alveolar lavage fluid at 20 mg/kg, IG treated 0.5 hrs before LPS stimulation by ELISA. The series is classed as functional, organism-based.
Series [9] concerns Mus musculus. The experiment in a line: Anti-inflammatory activity against C57BL/6 mouse model of LPS-induced acute lung injury assessed as reduction in IL6 secretion in broncho alveolar lavage fluid at 20 mg/kg, IG treated 0.5 hrs before LPS stimulation by ELISA. The series is classed as functional, organism-based.
In series [10] the test system is Mus musculus. The experiment in a line: Antiinflammatory activity in C57BL/6 mouse model of LPS-induced acute lung injury assessed as reduction in lung wet/dry ratio at 20 mg/kg, IG administered 30 mins prior to LPS instillation. It counts as functional, organism-based.
Series [11] deals with J774.A1. Description: Antiinflammatory activity in mouse J774.A1 cells assessed as inhibition of LPS-induced IL6 secretion incubated for 2 followed by LPS stimulation and measured after 22 hrs by ELISA. It counts as functional, cell-based.
Series [12] deals with Mus musculus. The experiment in a line: Antiinflammatory activity against C57BL/6 mouse model of LPS-induced acute lung injury assessed as reduction in pulmonary congestion at 20 mg/kg, IG treated 0.5 hrs before LPS challenge by H and E staining based histopathological analysis. It counts as functional, organism-based.
The test system of series [13] is Mus musculus. Description: Antiinflammatory activity against C57BL/6 mouse model of LPS-induced acute lung injury assessed as reduction in inflammatory infiltration at 20 mg/kg, IG treated 0.5 hrs before LPS challenge by H and E staining based histopathological analysis. The series is classed as functional, organism-based.
Series [14] has as its system J774.A1. The experiment in a line: Antiinflammatory activity in mouse J774.A1 cells assessed as inhibition of LPS-induced TNF-alpha secretion incubated for 2 followed by LPS stimulation and measured after 22 hrs by ELISA. It counts as functional, cell-based.

Calls of active or inactive are those of the source. No cut-off for these calls is given here.

On to `O=C(/C=C/c1ccc(O)c(O)c1)c1cc(Br)ccc1O`, for which the outcome with J774.A1 [1] and with J774.A1 [3] was Active. In addition, the Activity entry with J774.A1 [2] is “Non-Toxic”.

With `COc1ccc(C(=O)/C=C/c2ccc(O)c(O)c2)c(O)c1` [CALYTHROPSIN], the result in the series with J774.A1 [1] and with J774.A1 [3] was Active. Also, the Activity entry in the series with J774.A1 [2] is “Non-Toxic”.

With `O=C(/C=C/c1ccc(O)c(O)c1)c1ccc(OCCCN2CCCCC2)cc1O`, the outcome with J774.A1 [1] and with J774.A1 [3] was Active. Moreover, the Activity result with J774.A1 [2] is given as “Non-Toxic”.

`O=C(/C=C/c1ccc(O)c(O)c1)c1ccc(OCCN2CCOCC2)cc1O`: the result in the series on J774.A1 [1] and with J774.A1 [3] was Active. In addition, the Activity entry in the series with J774.A1 [2] is “Non-Toxic”.

In the case of `COc1ccc2c(=O)c(O)c(-c3ccc(O)c(O)c3)oc2c1`, the outcome with J774.A1 [1] and in the series with J774.A1 [3] was Active. Also, the Activity result in the series on J774.A1 [2] is “Non-Toxic”.

As to `CN(C)CCCOc1ccc(O)c(C(=O)/C=C/c2ccc(O)c(O)c2)c1`, the result in the series with J774.A1 [1] and in the series on J774.A1 [3] was Active. Also, the Activity result with J774.A1 [2] was “Non-Toxic”.

With `COc1cc(O)c(C(=O)/C=C/c2ccc(O)c(O)c2)cc1OC`, the result in the series with J774.A1 [1] and with J774.A1 [3] was Active. Moreover, the Activity result in the series on J774.A1 [2] is “Non-Toxic”.

For `O=C(/C=C/c1ccc(O)c(O)c1)c1cc(OCCCN2CCOCC2)ccc1O`, the outcome in the series on J774.A1 [1] and with J774.A1 [3] was Active. Moreover, the Activity result in the series on J774.A1 [2] is reported as “Non-Toxic”.

For `O=C(/C=C/c1ccc(O)c(O)c1)c1ccc(F)cc1O`, the result with J774.A1 [1] and in the series on J774.A1 [3] was Active. In the series on J774.A1 [2], the Activity result was “Non-Toxic”.

On to `O=C(/C=C/c1ccc(O)c(O)c1)c1ccc(OCCN2CCCC2)cc1O`, for which the outcome in the series on J774.A1 [1] and with J774.A1 [3] was Active. Moreover, in the series with J774.A1 [2], the Activity entry was “Non-Toxic”.

Take `CN1CCN(CCCOc2ccc(O)c(C(=O)/C=C/c3ccc(O)c(O)c3)c2)CC1`: the outcome with J774.A1 [1] and with J774.A1 [3] was Active. For the same molecule, the Activity entry in the series on J774.A1 [2] is “Non-Toxic”.

Turning to `O=C(/C=C/c1ccc(O)c(O)c1)c1cc(OCCN2CCOCC2)ccc1O`, the outcome in the series on J774.A1 [1] and in the series on J774.A1 [3] was Active. The Activity result with J774.A1 [2] was “Non-Toxic”.

As a reminder, the inhibition is the relative decrease from the control value, in per cent. Broadly, the IC50 is the point on the concentration scale where inhibition reaches its midpoint. In the case of `CN(C)CCCOc1ccc(C(=O)/C=C/c2ccc(O)c(O)c2)c(O)c1`, the inhibition at 10 µM was found to be 89.6% in the series with J774.A1 [1] (time 24 hrs) and 76.4% in the series with J774.A1 [3] (time 24 hrs). Also, the outcome in the series on Mus musculus [4], in the series with Mus musculus [5], with Mus musculus [6], in the series on Mus musculus [7], with Mus musculus [8] and in the series with Mus musculus [9] was Active. The outcome in the series with Mus musculus [10], in the series with Mus musculus [12] and in the series with Mus musculus [13] was Active. Besides, the IC50 in the series on J774.A1 [11] (J774.A1, 22 h) was 8.25 µM; in the series with J774.A1 [14] (J774.A1, 22 h), 2580 nM. Moreover, the inhibition entry in the series with J774.A1 [11] (time 24.0 hrs) and in the series on J774.A1 [14] (time 24.0 hrs) was “Dose-dependent effect” in each case. The Activity entry in the series with J774.A1 [2] is on record as “Non-Toxic”.

With `O=C(/C=C/c1ccc(O)c(O)c1)c1ccc(OCCCN2CCOCC2)cc1O`, the outcome in the series on J774.A1 [1] and in the series on J774.A1 [3] was Active. Also, the Activity result in the series with J774.A1 [2] is “Non-Toxic”.

In the case of `O=c1c(O)c(-c2ccc(O)c(O)c2)oc2ccc(F)cc12`, the outcome in the series on J774.A1 [1] and in the series on J774.A1 [3] was Active. Moreover, the Activity result in the series on J774.A1 [2] is listed as “Non-Toxic”.

With `O=C(/C=C/c1ccc(O)c(O)c1)c1cc(OCCCN2CCCCC2)ccc1O`, the result with J774.A1 [1] and in the series with J774.A1 [3] was Active. The Activity result in the series with J774.A1 [2] is given as “Non-Toxic”.

With `O=C(/C=C/c1ccc(O)c(O)c1)c1cc(F)ccc1O`, the result in the series with J774.A1 [1] and with J774.A1 [3] was Active. The Activity result with J774.A1 [2] is “Non-Toxic”.

`O=C(/C=C/c1ccc(O)c(O)c1)c1ccc([N+](=O)[O-])cc1O`: the result in the series with J774.A1 [1] and with J774.A1 [3] was Active. The Activity entry in the series on J774.A1 [2] is “Non-Toxic”.

With `O=C(/C=C/c1ccc(O)c(O)c1)c1cc(OCCCN2CCCC2)ccc1O`, the outcome in the series on J774.A1 [1] and with J774.A1 [3] was Active. In addition, the Activity entry with J774.A1 [2] was “Non-Toxic”.

Take `O=c1c(O)c(-c2ccc(O)c(O)c2)oc2ccc(Br)cc12`: the result in the series on J774.A1 [1] and in the series with J774.A1 [3] was Active. For the same molecule, the Activity result in the series on J774.A1 [2] is reported as “Non-Toxic”.

With `O=C(/C=C/c1ccc(O)c(O)c1)c1ccc(Br)cc1O`, the result with J774.A1 [1] and in the series with J774.A1 [3] was Active. In addition, the Activity result in the series with J774.A1 [2] is “Non-Toxic”.

Turning to `O=c1c(O)c(-c2ccc(O)c(O)c2)oc2cc(Br)ccc12`, the result in the series on J774.A1 [1] and with J774.A1 [3] was Active. Moreover, the Activity result with J774.A1 [2] is recorded as “Non-Toxic”.

On to `O=C(/C=C/c1ccc(O)c(O)c1)c1ccc(OCCCN2CCCC2)cc1O`, for which the result in the series on J774.A1 [1] and with J774.A1 [3] was Active. Moreover, the Activity result in the series on J774.A1 [2] is reported as “Non-Toxic”.

Regarding `O=c1c(O)c(-c2ccc(O)c(O)c2)oc2cc(O)ccc12` [FISETIN], the outcome in the series with J774.A1 [1], with Mus musculus [8] and in the series with J774.A1 [3] was Active. The Activity result with J774.A1 [2] is “Non-Toxic”.

For the molecule `O=C(/C=C/c1ccc(O)c(O)c1)c1cc(OCCN2CCCC2)ccc1O`, the outcome with J774.A1 [1] and with J774.A1 [3] was Active. Further, the Activity result with J774.A1 [2] was “Non-Toxic”.

In the case of `O=c1c(O)c(-c2ccc(O)c(O)c2)oc2cc(F)ccc12`, the outcome in the series on J774.A1 [1] and with J774.A1 [3] was Active. Further, in the series with J774.A1 [2], the Activity result was “Non-Toxic”.
